From paper PMC11984392, “EphA2-targeted alpha-particle theranostics for enhancing PDAC treatment” (Theranostics, 2025)
Read-outs that look alike come from different tables or passages of the source. *1 amine or outer side, *2 acyl side, *3 side chain or, on linkers, in order; H or OH if unused. Where a SMILES comes first, the peptide text is derived from it. Bridges are numbered along the chain shown (N, C = ends). [ ]: non-standard residue; d: D form. The star is where a group is joined. TATA = O=C(CC[*:1])N1CN(C(=O)CC[*:2])CN(C(=O)CC[*:3])C1; NOTA = O=C(O)CN1CCN(CC(=O)O)CCN(CC(=O)*)CC1; Hyp = O=C(O)[C@@H]1C[C@@H](O)CN1; hArg = N=C(N)NCCCC[C@H](N)C(=O)O; PEG2 = NCCOCCOCCC(=O)O; Sar = CNCC(=O)O

Tests used:
[1] = Human radiation dosimetry estimates (MIRDCalc)
Source text: Pharmacokinetic data obtained from biodistribution studies of Panc1 tumor-bearing mice were utilized to predict the time-integrated activity coefficients (TIACs, formerly known as residence times) of [^68Ga]AJ201 in humans, as previously described [28]-[30]. These TIAC estimates were then input into MIRDCalc to determine the absorbed dose coefficients for organs from ^68Ga using the ICRP adult female reference phantom (Table S4).

[2] = In vitro stability of radiotracers in human serum; type: in vitro ADME; settings: radio-RP-HPLC after ultrafiltration (10 kDa)
Method: (§1) The stability of the radiotracers was assessed in saline and human serum at 37 °C to mimic physiological conditions. Approximately 1.5 mCi of the radiotracer, prepared in 100-150 µL of saline, was added to 0.5 mL of either saline or human serum in separate microcentrifuge tubes. The mixtures were gently vortexed and then incubated at 37 °C in an incubator. At predetermined time-points (1, 2, and 3 h), 100 µL aliquots were collected from the incubation mixtures for analysis. For serum samples, proteins were removed by adding 100 µL of saline and 50 µL of ethanol, followed by ultrafiltration using 10 kDa centrifugal filters made of regenerative cellulose membranes. The filtration process was performed by centrifugation at 14,000 rpm for 10 min and repeated once more to ensure complete protein removal. The filtrate was collected for analysis. The radiochemical integrity of the radiotracer in both saline and serum was evaluated using radio-RP-HPLC.

[3] = PET tumor uptake (SUV) of [68Ga]AJ201; type: in vivo; settings: total radioactivity
Panc1 tumor xenografts = assay: Whole-body dynamic PET pharmacokinetics; type: in vivo, NSG mice; settings: ~250 µCi i.v., remaining constant until 90 min
Method: Dynamic PET images were acquired on a Simultaneous 7T Bruker PET-MR scanner to evaluate the pharmacokinetics of [^68Ga]AJ201. Mice bearing Panc1 tumor xenografts were anesthetized under 2.5% isoflurane and a catheter was fixed in the tail vein before being secured on the PET-MR bed. An activity of ~250 µCi (9.3 MBq; 0.5 to 0.8 nmol) of [^68Ga]AJ201 was administered intravenously and whole-body PET dynamic scans were performed. Dynamic PET scans were initiated one min before radiotracer injection and acquired at varying intervals to capture early and late-phase kinetics: every 30 s from -1 to 5 min, every min from 5 to 15 min, every 3 min from 15 to 30 min, every 5 min from 30 to 60 min, and every 10 min from 60 to 90 min. The acquired PET data were reconstructed and corrected for radioactive decay and dead time using ParaVision 360 V2 by Bruker. The percentage of injected dose per cc (%ID/cc) values were obtained by drawing ROI on the tumor, muscle, heart, liver and kidney using PMOD software, and image fusion and visualization were also performed using PMOD software.

Ex vivo biodistribution = type: in vivo, mice; settings: mouse, in vivo, total radioactivity, KPC syngeneic tumor, 60 min p.i., mean ± SEM (n = 5)
Method: (§2) Mice with 100-200 mm^3 tumor volume were used for ex vivo biodistribution studies. For radiotracer pharmacokinetics and dosimetry studies, mice with Panc1 tumor xenograft received ~80 µCi (2.96 MBq) [^68Ga]AJ201 and were sacrificed at pre-determined time points (5, 30, 60, 90 and 120 min). All other mice were injected with ~50 µCi (1.85 MBq; 0.2 to 0.5 nmol) Ga-68 labeled radiotracer and were sacrificed at 60 min. The selected tissues were collected, weighed, counted, and their %ID/g values calculated for biodistribution analysis. For pharmacokinetics and dosimetry studies, selected tissues included blood, muscle, tumor, thymus, heart, lung, liver, pancreas, stomach, small intestine, large intestine, spleen, adrenals, kidney, bladder, femur, brain and tumor xenografts. For other studies, selected tissues were blood, muscle, tumor, heart, lung, liver, pancreas, small intestine, spleen, kidney.

KPC syngeneic tumor = assay: Ex vivo biodistribution; type: in vivo, mice; settings: KPC syngeneic tumor; 60 min p.i.; mean ± SEM (n = 5)
Method: as §2

[4] = In vitro stability of radiotracers in saline / formulation buffer; type: physicochemical; settings: 37 °C, radio-RP-HPLC
Method: as §1

[5] = absorbed dose coefficient, MIRDCalc, ICRP adult female reference phantom
[6] = absorbed dose coefficient, MIRDCalc, ICRP adult female reference phantom, listed as [68Ga]AJ201
[7] = predicted for humans from Panc1 mouse biodistribution

CC(C)C[C@@H]1NC(=O)[C@@H]2CSCCC(=O)N3CN(CN(C3)C(=O)CCSC[C@H](NC(=O)[C@H](CC(=O)O)NC(=O)[C@H](CCCCNC(=N)N)NC(=O)[C@H](C)NC(=O)CNC(=O)CN(C)C(=O)CN(C)C(=O)CN(C)C(=O)[C@H](CCCNC(=N)N)NC(=O)CNC(=O)CCOCCOCCNC(=O)CN3CCN(CC(=O)O)CCN(CC(=O)O)CC3)C(=O)N3C[C@H](O)C[C@H]3C(=O)N[C@@H](CC(C)C)C(=O)N[C@@H](C(C)C)C(=O)N[C@@H](CC(N)=O)C(=O)N3CCC[C@H]3C(=O)N[C@@H](CC(C)C)C(=O)N2)C(=O)CCSC[C@@H](C(N)=O)NC(=O)[C@H](CCCCNC(=N)N)NC(=O)[C@H](Cc2c[nH]c3ccccc23)NC(=O)[C@@H](CC(=O)O)NC(=O)[C@@H]2CCCN2C(=O)[C@H](Cc2c[nH]cn2)NC1=O [[^68Ga]AJ201, metal not drawn] ({NOTA-PEG2}-GR[Sar][Sar][Sar]GA[hArg]DC[Hyp]LVNPLCLHP[dD]W[hArg]C-NH2; linker 10-17-24 via TATA)
Organ dose, Adrenals [1, 5]: 0.06 rem/mCi
Organ dose, Bladder [1, 5]: 0.15 rem/mCi
Organ dose, Brain [1, 5]: 0.003215 rem/mCi
Organ dose, Femur [1, 5]: 0.01421 rem/mCi
Organ dose, Heart [1, 5]: 0.03275 rem/mCi
Organ dose, Kidney [1, 5]: 0.38 rem/mCi
Organ dose, Large Intestine [1, 5]: 0.01839 rem/mCi
Organ dose, Liver [1, 5]: 0.02398 rem/mCi
Organ dose, Lung [1, 5]: 0.04 rem/mCi
Organ dose, Muscle [1, 5]: 0.00962 rem/mCi
Organ dose, Pancreas [1, 5]: 0.02708 rem/mCi
Organ dose, Small intestine [1, 5]: 0.01639 rem/mCi
Organ dose, Spleen [1, 5]: 0.03644 rem/mCi
Organ dose, Stomach with contents [1, 5]: 0.0158 rem/mCi
Organ dose, Thymus [1, 5]: 0.02016 rem/mCi
Organ dose, Adrenals [1, 6]: 0.06253 rem/mCi
Organ dose, Bladder [1, 6]: 0.1513 rem/mCi
Organ dose, Kidney [1, 6]: 0.3885 rem/mCi
Organ dose, Lung [1, 6]: 0.04292 rem/mCi
Estimated effective dose equivalent ([1]; at 13 mCi dose, human estimate): less than 5 rem
Dose that can be safely administered for PET imaging ([1]; human estimate): 13 mCi
Residence time (TIAC), Adrenals [1, 7]: 0.0002761 h
Residence time (TIAC), Bladder [1, 7]: 0.006394 h
Residence time (TIAC), Blood [1, 7]: 0.05152 h
Residence time (TIAC), Brain [1, 7]: 0.0008446 h
Residence time (TIAC), Femur [1, 7]: 0.005607 h
Residence time (TIAC), Heart [1, 7]: 0.001764 h
Residence time (TIAC), Kidney [1, 7]: 0.08395 h
Residence time (TIAC), Large Intestine [1, 7]: 0.001341 h
Residence time (TIAC), Liver [1, 7]: 0.01723 h
Residence time (TIAC), Lung [1, 7]: 0.01099 h
Residence time (TIAC), Muscle [1, 7]: 0.07064 h
Residence time (TIAC), Pancreas [1, 7]: 0.0006321 h
Residence time (TIAC), Small intestine [1, 7]: 0.003647 h
Residence time (TIAC), Spleen [1, 7]: 0.002451 h
Residence time (TIAC), Stomach with contents [1, 7]: 0.0004823 h
Residence time (TIAC), Thymus [1, 7]: 0.0002384 h
Stability in human serum (radio-HPLC finding) ([2]; 37 °C, 1, 2 and 3 h, ~1.5 mCi in 0.5 mL): stable without noticeable degradation or impurity formation
Time of stability in human serum ([2]; 37 °C): at least 3 h
SUV [3]: 1.31 ± 0.11 SUV
Time of peak tumor radioactivity (ROI analysis) (Panc1 tumor xenografts): 30 min
tissue uptake at 1 h (Ex vivo biodistribution; 50 uCi, read-out: Bladder uptake): 74.9 ± 15.3 %ID/g
tissue uptake at 1 h (Ex vivo biodistribution; 50 uCi, read-out: Femur uptake): 0.71 ± 0.22 %ID/g
tissue uptake at 1 h (Ex vivo biodistribution; 50 uCi, read-out: Heart uptake): 0.3 ± 0.06 %ID/g
tissue uptake at 1 h (Ex vivo biodistribution; 50 uCi, read-out: Kidney uptake): 50.3 ± 9.75 %ID/g
tissue uptake at 1 h (Ex vivo biodistribution; 50 uCi, read-out: Liver uptake): 2.46 ± 0.77 %ID/g
tissue uptake at 1 h (Ex vivo biodistribution; 50 uCi, read-out: Lung uptake): 0.78 ± 0.13 %ID/g
tissue uptake at 1 h (Ex vivo biodistribution; 50 uCi, read-out: Muscle uptake): 0.28 ± 0.08 %ID/g
tissue uptake at 1 h (Ex vivo biodistribution; 50 uCi, read-out: Pancreas uptake): 0.22 ± 0.04 %ID/g
tissue uptake at 1 h (Ex vivo biodistribution; 50 uCi, read-out: Small intestine uptake): 0.62 ± 0.25 %ID/g
tissue uptake at 1 h (Ex vivo biodistribution; 50 uCi, read-out: Stomach uptake): 0.95 ± 0.26 %ID/g
tissue uptake at 1 h (Ex vivo biodistribution; 50 uCi, read-out: Tumor uptake): 1.51 ± 0.28 %ID/g
tissue to tissue ratio at 1 h (Ex vivo biodistribution; 50 uCi, read-out: Tumor/Muscle ratio): 6 ± 0.77
tissue to tissue ratio at 1 h (Ex vivo biodistribution; 50 uCi, read-out: Tumor/Pancreas ratio): 6.67 ± 2.18
tissue to tissue ratio at 1 h (Ex vivo biodistribution; 50 uCi, read-out: Tumor/blood ratio): 2.17 ± 0.46
tissue uptake at 1 h (Ex vivo biodistribution; read-out: Blood uptake): 0.75 ± 0.15 %ID/g
tissue uptake at 1 h (Ex vivo biodistribution; read-out: Large Intestine uptake): 0.61 ± 0.28 %ID/g
tissue uptake at 1 h (Ex vivo biodistribution; read-out: Spleen uptake): 0.71 ± 0.3 %ID/g
Brain uptake (KPC syngeneic tumor): 0.04 ± 0.01 %ID/g
Time of stability in formulation buffer ([4]; 10% EtOH/saline): at least 3 h
Stability in saline (radio-HPLC finding) ([4]; saline, up to 3 h, ~1.5 mCi in 0.5 mL): stable without noticeable degradation or impurity formation
